These results are taken from patent US9168212B2, “Composition for eyelash growth” (SK CHEMICALS CO., LTD., priority 2011, dated 2015).

The test system of assay [1] is eyelashes. The experiment in a line: In vivo evaluation related to eyelash growth (two weeks local administration). Also noted: species or system mouse. As for the experimental part:
(§1) Analysis was conducted immediately after the eyelashes were collected. Using a high-performance microscope with computer-assisted eyelid thickness focus fixation and an image analysis software capable of measuring the number, thickness and length of eyelashes, the eyelashes were measured for the exact number, thickness and length thereof. Numeric data obtained by this method was averaged, and comparative analysis was conducted using prism statistical software.

The test system of assay [2] is eyelashes. The experiment in a line: Short-term in vivo evaluation related to eyelash growth (one week administration). Further details: species or system mouse. As for the experimental part:
as §1

Where [3] appears, read: female mouse, 2 μl applied to the eyelashes once a day for two weeks, n is 8 for each group.
Where [4] appears, read: female mouse, 2 μl applied to the eyelashes once a day for one week, n is 6 for each group.

With `CCNC(=O)CCC/C=C\C[C@@H]1[C@@H](/C=C/[C@@H](O)CCc2ccccc2)[C@H](O)C[C@@H]1O` [bimatoprost], the “statistical significance of increase in number, thickness and length of eyelashes compared to the control group” value in assay [1] (administered for two weeks, t-test) is “statistically significant increase in only two items of number and thickness of eyelashes”. In assay [1] (setting [3]), the number of eyelashes is listed as 39.0 eyelashes, the “number of eyelashes having a length of 1000 μm or more” value was 9.5 eyelashes and the “number of eyelashes having a thickness of 15 μm or more” value came out at 9.5 eyelashes. In addition, in assay [2] (setting [4]), the number of eyelashes was determined as 37.8 eyelashes, the “number of eyelashes having a length of 1000 μm or more” value is 12.3 eyelashes and the “number of eyelashes having a thickness of 15 μm or more” value was 8.7 eyelashes. The “statistical significance of increase in number, thickness and length of eyelashes compared to the control group” value in assay [2] (one week administration, t-test) is given as “statistically significant increase in only one item of eyelash thickness”.
